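Cells were grown in 96-well plates and exposed to each compound for 48 hours at five concentrations; endpoints were interpolated linearly between bracketing concentrations, or set to the highest concentration if not reached. TGI denotes the concentration required for complete inhibition of growth.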 Starred links: 1 amine or outer side, 2 acyl side, 3 side chain; linkers in the order of their positions; H or OH if unused. Positions of bridges follow the written chain, without caps; N, C: chain ends. Non-standard residues stand in square brackets, D forms with d. Residues, ends and D or L forms follow the SMILES beside them. *: point of attachment. X3 = CC(C)C(C)C(C(=O)[*:2])N(C)[*:1]; Picolinoyl(3-OH) = O=C(c1ncccc1O)*; NMePhg = CN[CH](C(=O)O)c1ccccc1; Hyp = O=C(O)[CH]1C[CH](O)CN1; Sar = CNCC(=O)O
What was measured:
Assay in all cases: NCI tumour cell line growth inhibition, 48 h
786-0 renal = system: 786-0 renal
A549 NSCLC = system: A549 NSCLC
ACHN renal = system: ACHN renal
CAKI-1 renal = system: CAKI-1 renal
CCRF-CEM leukemia = system: CCRF-CEM leukemia
COLO 205 colon = system: COLO 205 colon
DMS 114 small cell lung = system: DMS 114 small cell lung
DMS 273 small cell lung = system: DMS 273 small cell lung
EKVX NSCLC = system: EKVX NSCLC
HCC-2998 colon = system: HCC-2998 colon
HCT-116 colon = system: HCT-116 colon
HCT-15 colon = system: HCT-15 colon
HL-60(TB) leukemia = system: HL-60(TB) leukemia
HOP-18 NSCLC = system: HOP-18 NSCLC
HOP-62 NSCLC = system: HOP-62 NSCLC
HOP-92 NSCLC = system: HOP-92 NSCLC
HT29 colon = system: HT29 colon
IGROV1 ovarian = system: IGROV1 ovarian
K-562 leukemia = system: K-562 leukemia
KM12 colon = system: KM12 colon
KM20L2 colon = system: KM20L2 colon
LXFL 529 NSCLC = system: LXFL 529 NSCLC
M14 melanoma = system: M14 melanoma
M19-MEL melanoma = system: M19-MEL melanoma
MALME-3M melanoma = system: MALME-3M melanoma
MOLT-4 leukemia = system: MOLT-4 leukemia
NCI-H23 lung = system: NCI-H23 lung
NCI-H522 lung = system: NCI-H522 lung
OVCAR-3 ovarian = system: OVCAR-3 ovarian
OVCAR-4 ovarian = system: OVCAR-4 ovarian
OVCAR-5 ovarian = system: OVCAR-5 ovarian
OVCAR-8 ovarian = system: OVCAR-8 ovarian
RPMI-8226 leukemia = system: RPMI-8226 leukemia
RXF-631 renal = system: RXF-631 renal
SF-295 CNS = system: SF-295 CNS
SF-539 CNS = system: SF-539 CNS
SK-MEL-2 melanoma = system: SK-MEL-2 melanoma
SK-MEL-28 melanoma = system: SK-MEL-28 melanoma
SK-MEL-5 melanoma = system: SK-MEL-5 melanoma
SK-OV-3 ovarian = system: SK-OV-3 ovarian
SN12C renal = system: SN12C renal
SNB-19 CNS = system: SNB-19 CNS
SNB-75 CNS = system: SNB-75 CNS
SNB-78 CNS = system: SNB-78 CNS
SR leukemia = system: SR leukemia
SW-620 colon = system: SW-620 colon
U251 CNS = system: U251 CNS
UACC-257 melanoma = system: UACC-257 melanoma
UACC-62 melanoma = system: UACC-62 melanoma
XF 498 CNS = system: XF 498 CNS
DLD-1 colon = system: DLD-1 colon
NCI-H226 lung = system: NCI-H226 lung
P388/ADR leukemia = system: P388/ADR leukemia
SN12K1 renal = system: SN12K1 renal

SMILES: O=c1cc(-c2ccccc2)oc2cc(OCCCCCCCCCCOc3ccc4c(=O)cc(-c5ccccc5)oc4c3)ccc12
- TGI (786-0 renal): > 100 µM
- TGI (A549 NSCLC): > 100 µM
- TGI (ACHN renal): > 100 µM
- TGI (CAKI-1 renal): > 100 µM
- TGI (CCRF-CEM leukemia): > 100 µM
- TGI (COLO 205 colon): > 100 µM
- TGI (DMS 114 small cell lung): > 100 µM
- TGI (DMS 273 small cell lung): > 100 µM
- TGI (EKVX NSCLC): > 100 µM
- TGI (HCC-2998 colon): > 100 µM
- TGI (HCT-116 colon): > 100 µM
- TGI (HCT-15 colon): > 100 µM
- TGI (HL-60(TB) leukemia): > 100 µM
- TGI (HOP-18 NSCLC): > 100 µM
- TGI (HOP-62 NSCLC): > 100 µM
- TGI (HOP-92 NSCLC): > 100 µM
- TGI (HT29 colon): > 100 µM
- TGI (IGROV1 ovarian): > 100 µM
- TGI (K-562 leukemia): > 100 µM
- TGI (KM12 colon): > 100 µM
- TGI (KM20L2 colon): > 100 µM
- TGI (LXFL 529 NSCLC): > 100 µM
- TGI (M14 melanoma): > 100 µM
- TGI (M19-MEL melanoma): > 100 µM
- TGI (MALME-3M melanoma): > 100 µM
- TGI (MOLT-4 leukemia): > 100 µM
- TGI (NCI-H23 lung): > 100 µM
- TGI (NCI-H522 lung): > 100 µM
- TGI (OVCAR-3 ovarian): > 100 µM
- TGI (OVCAR-4 ovarian): > 100 µM
- TGI (OVCAR-5 ovarian): > 100 µM
- TGI (OVCAR-8 ovarian): > 100 µM
- TGI (RPMI-8226 leukemia): > 100 µM
- TGI (RXF-631 renal): > 100 µM
- TGI (SF-295 CNS): > 100 µM
- TGI (SF-539 CNS): > 100 µM
- TGI (SK-MEL-2 melanoma): > 100 µM
- TGI (SK-MEL-28 melanoma): > 100 µM
- TGI (SK-MEL-5 melanoma): > 100 µM
- TGI (SK-OV-3 ovarian): > 100 µM
- TGI (SN12C renal): > 100 µM
- TGI (SNB-19 CNS): > 100 µM
- TGI (SNB-75 CNS): > 100 µM
- TGI (SNB-78 CNS): > 100 µM
- TGI (SR leukemia): > 100 µM
- TGI (SW-620 colon): > 100 µM
- TGI (U251 CNS): > 100 µM
- TGI (UACC-257 melanoma): > 100 µM
- TGI (UACC-62 melanoma): > 100 µM
- TGI (XF 498 CNS): > 100 µM

SMILES: CC(C)CC1NC(=O)C(NC(=O)c2ncccc2O)C(C)OC(=O)C(c2ccccc2)N(C)C(=O)C(C)NC(=O)C(C(C)C(C)C)N(C)C(=O)CN(C)C(=O)C2CC(O)CN2C1=O (centres undefined) ({Picolinoyl(3-OH)}-TL[Hyp][Sar][X3]A[NMePhg]; ester 1-C; configuration not given here)
- TGI (DLD-1 colon): > 125 µM
- TGI (DMS 114 small cell lung): > 125 µM
- TGI (DMS 273 small cell lung): > 125 µM
- TGI (HOP-18 NSCLC): > 125 µM
- TGI (HOP-92 NSCLC): > 125 µM
- TGI (KM20L2 colon): > 12.5 µM
- TGI (M19-MEL melanoma): > 125 µM
- TGI (NCI-H226 lung): > 125 µM
- TGI (NCI-H23 lung): > 125 µM
- TGI (P388/ADR leukemia): > 125 µM
- TGI (SN12K1 renal): > 125 µM
- TGI (SNB-78 CNS): > 125 µM
- TGI (UACC-257 melanoma): > 125 µM
- TGI (XF 498 CNS): > 120 µM

— PubChem BioAssay (NCI)
